In ChEMBL document CHEMBL1201862, “PubChem BioAssay data set” (2004):
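48-hour exposure; five concentrations; linearly interpolated endpoints. At the GI50, growth is halved.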 Active and inactive are the calls of the source. Rule as the data show it: active = GI50 up to about 1.1 µM and inactive = higher.

Columns and labels:
Test in all cases: NCI-60 cell line screen, 48 h
SW-620 = system: SW-620
HOP-92 = system: HOP-92
KM-20L2 = system: KM-20L2
A549 = system: A549
SK-MEL-28 = system: SK-MEL-28
SNB-78 = system: SNB-78
OVCAR-3 = system: OVCAR-3
HL-60 = system: HL-60
IGROV-1 = system: IGROV-1
HCT-116 = system: HCT-116
ACHN = system: ACHN
RXF 393 = system: RXF 393
UACC-257 = system: UACC-257
A498 = system: A498
LXFL 529 = system: LXFL 529
NCI-H226 = system: NCI-H226
SF-295 = system: SF-295
UACC-62 = system: UACC-62
SNB-19 = system: SNB-19
CCRF-CEM = system: CCRF-CEM
SNB-75 = system: SNB-75
NCI-H522 = system: NCI-H522
SF-539 = system: SF-539
HCT-15 = system: HCT-15
SN12C = system: SN12C
786-0 = system: 786-0
SK-MEL-2 = system: SK-MEL-2
UO-31 = system: UO-31
HCC 2998 = system: HCC 2998
HOP-18 = system: HOP-18
TK-10 = system: TK-10
NCI-H460 = system: NCI-H460
DLD-1 = system: DLD-1
U-251 = system: U-251
XF498 = system: XF498
KM12 = system: KM12
LOX IMVI = system: LOX IMVI
SF-268 = system: SF-268
NCI-H23 = system: NCI-H23
SK-OV-3 = system: SK-OV-3
OVCAR-5 = system: OVCAR-5
OVCAR-4 = system: OVCAR-4
RXF 631 = system: RXF 631
SK-MEL-5 = system: SK-MEL-5
COLO 205 = system: COLO 205
HT-29 = system: HT-29
M19-MEL = system: M19-MEL
RPMI-8226 = system: RPMI-8226
EKVX = system: EKVX
M14 = system: M14
DMS-114 = system: DMS-114
Malme-3M = system: Malme-3M
HOP-62 = system: HOP-62
OVCAR-8 = system: OVCAR-8
K562 = system: K562
MOLT-4 = system: MOLT-4
SR = system: SR
DMS-273 = system: DMS-273
MCF7 = system: MCF7
MDA-MB-435 = system: MDA-MB-435
Hs-578T = system: Hs-578T
CAKI-1 = system: CAKI-1
PC-3 = system: PC-3
NCI/ADR-RES = system: NCI/ADR-RES
DU-145 = system: DU-145
BT-549 = system: BT-549

Measured: GI50

CCCCCCCCCCCCCC(=O)NCO
inactive: SW-620 > 100 µM | HOP-92 > 100 µM | KM-20L2 > 100 µM | A549 > 100 µM | SK-MEL-28 > 100 µM | SNB-78 > 100 µM | OVCAR-3 > 100 µM | HL-60 > 100 µM | IGROV-1 > 100 µM | HCT-116 > 100 µM | ACHN > 100 µM | RXF 393 > 100 µM | UACC-257 > 100 µM | A498 > 100 µM | LXFL 529 > 100 µM | NCI-H226 > 100 µM | SF-295 > 100 µM | UACC-62 > 100 µM | SNB-19 > 100 µM | CCRF-CEM > 100 µM | SNB-75 > 100 µM | NCI-H522 86.3 µM | SF-539 > 100 µM | SN12C > 100 µM | 786-0 > 100 µM | SK-MEL-2 > 100 µM | UO-31 99.3 µM | HCC 2998 > 100 µM | HOP-18 > 100 µM | TK-10 > 100 µM | NCI-H460 > 100 µM | DLD-1 > 100 µM | U-251 > 100 µM | XF498 > 100 µM | KM12 > 100 µM | LOX IMVI > 100 µM | SF-268 > 100 µM | NCI-H23 > 100 µM | SK-OV-3 > 100 µM | OVCAR-5 > 100 µM | OVCAR-4 > 100 µM | RXF 631 > 100 µM | SK-MEL-5 > 100 µM | COLO 205 > 100 µM | HT-29 > 100 µM | M19-MEL > 100 µM | RPMI-8226 > 100 µM | EKVX > 100 µM | M14 > 100 µM | DMS-114 > 100 µM | Malme-3M > 100 µM | HOP-62 > 100 µM | OVCAR-8 > 100 µM
> 100 µM: HCT-15

CC(C)(C)CI
33 µM: HCT-15
inactive: SW-620 18.1 µM | HOP-92 26.2 µM | KM-20L2 32.2 µM | A549 25.6 µM | SK-MEL-28 50.6 µM | SNB-78 32.1 µM | OVCAR-3 19.1 µM | HL-60 22.9 µM | IGROV-1 > 100 µM | HCT-116 18.5 µM | ACHN 20.7 µM | RXF 393 18.4 µM | UACC-257 21.2 µM | A498 41.6 µM | LXFL 529 33.3 µM | SF-295 18.5 µM | UACC-62 29.9 µM | SNB-19 23 µM | CCRF-CEM 21.4 µM | SNB-75 26.4 µM | NCI-H522 17.5 µM | SF-539 88.5 µM | K562 21.6 µM | MOLT-4 37.2 µM | SN12C 18.4 µM | SR 25.4 µM | SK-MEL-2 19.8 µM | UO-31 > 10 µM | HCC 2998 19.4 µM | HOP-18 > 10 µM | TK-10 > 100 µM | NCI-H460 27.9 µM | DLD-1 34.2 µM | U-251 26.2 µM | DMS-273 15.1 µM | XF498 18.5 µM | KM12 25.7 µM | LOX IMVI 17.3 µM | SF-268 33.7 µM | NCI-H23 55.6 µM | SK-OV-3 48.4 µM | OVCAR-5 32.2 µM | RXF 631 32.3 µM | SK-MEL-5 16.9 µM | COLO 205 22.2 µM | HT-29 > 10 µM | M19-MEL 23 µM | EKVX 61.5 µM | M14 25 µM | DMS-114 19.7 µM | Malme-3M 19.7 µM | OVCAR-8 > 10 µM

C/C(=N\NC(=S)N1CC2CCC(CC2)C1)c1nccs1
0.0516 µM: HCT-15
active: SW-620 0.11 µM | HOP-92 0.646 µM | KM-20L2 < 0.01 µM | A549 0.19 µM | SK-MEL-28 1.1 µM | OVCAR-3 0.0415 µM | HL-60 < 0.01 µM | IGROV-1 0.158 µM | HCT-116 < 0.0187 µM | ACHN 0.3 µM | RXF 393 0.336 µM | UACC-257 0.113 µM | MCF7 < 25.8 nM | LXFL 529 0.0201 µM | NCI-H226 0.479 µM | SF-295 0.296 µM | UACC-62 0.132 µM | SNB-19 0.741 µM | CCRF-CEM < 0.01 µM | NCI-H522 0.0471 µM | SF-539 0.307 µM | K562 < 0.01 µM | MOLT-4 < 0.0196 µM | SN12C 0.853 µM | MDA-MB-435 413 nM | SR 0.0716 µM | 786-0 0.25 µM | SK-MEL-2 0.679 µM | UO-31 0.129 µM | HCC 2998 0.268 µM | HOP-18 0.327 µM | TK-10 0.975 µM | NCI-H460 0.0483 µM | DLD-1 0.0423 µM | U-251 0.185 µM | DMS-273 0.127 µM | CAKI-1 634 nM | KM12 0.133 µM | PC-3 228 nM | NCI/ADR-RES < 29.5 nM | LOX IMVI 0.271 µM | SF-268 0.294 µM | NCI-H23 0.434 µM | SK-OV-3 0.809 µM | OVCAR-5 0.143 µM | OVCAR-4 0.261 µM | RXF 631 0.518 µM | DU-145 255 nM | SK-MEL-5 0.153 µM | COLO 205 0.0145 µM | HT-29 0.07 µM | M19-MEL 0.288 µM | RPMI-8226 0.0347 µM | EKVX 0.0789 µM | M14 0.249 µM | DMS-114 < 0.0148 µM | Malme-3M 0.435 µM | HOP-62 0.395 µM | OVCAR-8 0.114 µM | BT-549 1.07 µM
inactive: SNB-78 10.3 µM | A498 1.8 µM | SNB-75 3.33 µM | Hs-578T 6.1 µM | XF498 2.3 µM
